Assay results taken from ChEMBL document CHEMBL4715814, “Design, synthesis and biological activity evaluation of novel 4-subtituted 2-naphthamide derivatives as AcrB inhibitors” (2018).
Activity calls are given as the source filed them. The rule behind the calls is not given here.

How the values were obtained:
[1] = test system: Escherichia coli; experiment: Potentiation of chloramphenicol-induced antibacterial activity against wild type Escherichia coli BW25113 assessed as fold reduction in chloramphenicol MIC at 128 ug/ml incubated for 18 hrs under aerobic condition by checkerboard titration assay relative to chloramphenicol MIC alone; format: functional; conditions: dose 128 µg/ml
[2] = test system: Cell membrane; experiment: Induction of outer membrane permeabilization in wild type Escherichia coli BW25113 assessed as increase in nitrocefin hydrolysis at 512 ug/ml measured for 30 mins in presence of CCCP by spectrophotometry analysis; format: subcellular; conditions: dose 512.0 µg/ml
[3] = test system: Escherichia coli; experiment: Potentiation of TPP-induced antibacterial activity against AcrB deficient Escherichia coli BW25113 assessed as TPP MIC at 128 ug/ml incubated for 18 hrs under aerobic condition by checkerboard titration assay (reference value: 256 ug/ml); format: functional; conditions: dose 128 µg/ml
[4] = test system: Escherichia coli; experiment: Potentiation of chloramphenicol-induced antibacterial activity against AcrB deficient Escherichia coli BW25113 assessed as chloramphenicol MIC at 128 ug/ml incubated for 18 hrs under aerobic condition by checkerboard titration assay (reference value: 2 ug/ml); format: functional; conditions: dose 128 µg/ml
[5] = test system: Escherichia coli; experiment: Potentiation of chloramphenicol-induced antibacterial activity against AcrB deficient Escherichia coli BW25113 assessed as chloramphenicol MIC at 256 ug/ml incubated for 18 hrs under aerobic condition by checkerboard titration assay (reference value: 2 ug/ml); format: functional; conditions: dose 256 µg/ml
[6] = test system: Escherichia coli; experiment: Potentiation of TPP-induced antibacterial activity against AcrB deficient Escherichia coli BW25113 assessed as TPP MIC at 256 ug/ml incubated for 18 hrs under aerobic condition by checkerboard titration assay (reference value: 256 ug/ml); format: functional; conditions: dose 256 µg/ml
[7] = test system: Escherichia coli; experiment: Potentiation of erythromycin-induced antibacterial activity against AcrB deficient Escherichia coli BW25113 assessed as erythromycin MIC at 128 ug/ml incubated for 18 hrs under aerobic condition by checkerboard titration assay (reference value: 32 ug/ml); format: functional; conditions: dose 128 µg/ml
[8] = test system: Escherichia coli; experiment: Potentiation of erythromycin-induced antibacterial activity against AcrB deficient Escherichia coli BW25113 assessed as erythromycin MIC at 256 ug/ml incubated for 18 hrs under aerobic condition by checkerboard titration assay (reference value: 32 ug/ml); format: functional; conditions: dose 256 µg/ml
[9] = test system: Escherichia coli; experiment: Potentiation of TPP-induced antibacterial activity against wild type Escherichia coli BW25113 assessed as TPP MIC at 256 ug/ml incubated for 18 hrs under aerobic condition by checkerboard titration assay (reference value: 1024 ug/ml); format: functional; conditions: dose 256 µg/ml
[10] = test system: Escherichia coli; experiment: Potentiation of TPP-induced antibacterial activity against wild type Escherichia coli BW25113 assessed as TPP MIC at 128 ug/ml incubated for 18 hrs under aerobic condition by checkerboard titration assay (reference value: 1024 ug/ml); format: functional; conditions: dose 128 µg/ml
[11] = test system: Escherichia coli; experiment: Potentiation of chloramphenicol-induced antibacterial activity against wild type Escherichia coli BW25113 assessed as chloramphenicol MIC at 256 ug/ml incubated for 18 hrs under aerobic condition by checkerboard titration assay (reference value: 16 ug/ml); format: functional; conditions: dose 256 µg/ml
[12] = test system: Escherichia coli; experiment: Potentiation of chloramphenicol-induced antibacterial activity against wild type Escherichia coli BW25113 assessed as chloramphenicol MIC at 128 ug/ml incubated for 18 hrs under aerobic condition by checkerboard titration assay (reference value: 16 ug/ml); format: functional; conditions: dose 128 µg/ml
[13] = test system: Escherichia coli; experiment: Potentiation of rifampicin-induced antibacterial activity against wild type Escherichia coli BW25113 assessed as rifampicin MIC at 128 ug/ml incubated for 18 hrs under aerobic condition by checkerboard titration assay (reference value: 16 ug/ml); format: functional; conditions: dose 128 µg/ml
[14] = test system: Escherichia coli; experiment: Potentiation of rifampicin-induced antibacterial activity against wild type Escherichia coli BW25113 assessed as rifampicin MIC at 256 ug/ml incubated for 18 hrs under aerobic condition by checkerboard titration assay (reference value: 16 ug/ml); format: functional; conditions: dose 256 µg/ml
[15] = test system: Escherichia coli; experiment: Potentiation of erythromycin-induced antibacterial activity against wild type Escherichia coli BW25113 assessed as erythromycin MIC at 256 ug/ml incubated for 18 hrs under aerobic condition by checkerboard titration assay (reference value: 128 ug/ml); format: functional; conditions: dose 256 µg/ml
[16] = test system: Escherichia coli; experiment: Potentiation of erythromycin-induced antibacterial activity against wild type Escherichia coli BW25113 assessed as erythromycin MIC at 128 ug/ml incubated for 18 hrs under aerobic condition by checkerboard titration assay (reference value: 128 ug/ml); format: functional; conditions: dose 128 µg/ml
[17] = test system: Escherichia coli; experiment: Potentiation of erythromycin-induced antibacterial activity against wild type Escherichia coli BW25113 assessed as fold reduction in erythromycin MIC at 128 ug/ml incubated for 18 hrs under aerobic condition by checkerboard titration assay relative to erythromycin MIC alone; format: functional; conditions: dose 128 µg/ml
[18] = test system: Escherichia coli; experiment: (§1) Antibacterial activity against Wild type Escherichia coli BW25113 assessed as inhibition of AcrB efflux pump by mesuring the glucose-induced nile red efflux at 500 uM preincubated with CCCP for 15 mins followed by compound addition after 15 mins nile red added and incubated for 3 hrs in shaker by fluorimetric analysis; format: functional, organism-based; conditions: time 195.0 min
[19] = test system: Cell membrane; experiment: Disruption of inner membrane potential in wild type Escherichia coli BW25113 at 512 ug/ml preincubated for 10 mins followed by glucose stimulation and CCCP addition by DiOC2 probe based fluorimetric analysis; format: subcellular; conditions: dose 512.0 µg/ml
[20] = test system: Escherichia coli; experiment: as §1, with “200” for “500”; format: functional, organism-based; conditions: time 195.0 min

## CCCNC(=O)c1cc(OCCC(C)C)c2ccccc2c1
[1]
  fold change (FC): 4
[2]
  Activity: inactive
[3]
  MIC: 256 µg/mL
[4]
  MIC: 2 µg/mL
[5]
  MIC: 1 µg/mL
[6]
  MIC: 256 µg/mL
[7]
  MIC: 32 µg/mL
[8]
  MIC: 16 µg/mL
[9]
  MIC: 1020 µg/mL
[10]
  MIC: 1020 µg/mL
[11]
  MIC: 4 µg/mL
[12]
  MIC: 16 µg/mL
[13]
  MIC: 16 µg/mL
[14]
  MIC: 4 µg/mL
[15]
  MIC: 16 µg/mL
[16]
  MIC: 32 µg/mL
[17]
  fold change (FC): 4

## CC(C)CCOc1cc(C(=O)Nc2ccccc2C(F)(F)F)cc2ccccc12
[18]
  Activity: Active
[2]
  Activity: inactive
[5]
  MIC: 2 µg/mL
[6]
  MIC: 256 µg/mL
[8]
  MIC: 32 µg/mL
[9]
  MIC: 1020 µg/mL
[10]
  MIC: 1020 µg/mL
[11]
  MIC: 4 µg/mL
[12]
  MIC: 8 µg/mL
[13]
  MIC: 16 µg/mL
[14]
  MIC: 16 µg/mL
[19]
  Activity: inactive
[15]
  MIC: 32 µg/mL
[16]
  MIC: 64 µg/mL

## CC(C)CCOc1cc(C(=O)NCc2ccco2)cc2ccccc12
[18]
  Activity: Active
[2]
  Activity: inactive
[5]
  MIC: 2 µg/mL
[6]
  MIC: 256 µg/mL
[8]
  MIC: 32 µg/mL
[9]
  MIC: 1020 µg/mL
[10]
  MIC: 1020 µg/mL
[11]
  MIC: 4 µg/mL
[12]
  MIC: 8 µg/mL
[13]
  MIC: 16 µg/mL
[14]
  MIC: 16 µg/mL
[19]
  Activity: Active
[15]
  MIC: 32 µg/mL
[16]
  MIC: 64 µg/mL

## CC(C)CCOc1cc(C(=O)NCc2ccccc2)cc2ccccc12
[2]
  Activity: inactive
[5]
  MIC: 1 µg/mL
[6]
  MIC: 256 µg/mL
[8]
  MIC: 32 µg/mL
[9]
  MIC: 1020 µg/mL
[10]
  MIC: 1020 µg/mL
[11]
  MIC: 4 µg/mL
[12]
  MIC: 8 µg/mL
[13]
  MIC: 16 µg/mL
[14]
  MIC: 8 µg/mL
[15]
  MIC: 32 µg/mL
[16]
  MIC: 64 µg/mL

## COc1ccc(CNC(=O)c2cc(OCc3ccccc3)c3ccccc3c2)cc1
[20]
  Activity: Active
[2]
  Activity: Active
[5]
  MIC: 2 µg/mL
[8]
  MIC: 32 µg/mL
[9]
  MIC: 1020 µg/mL
[10]
  MIC: 1020 µg/mL
[11]
  MIC: 4 µg/mL
[12]
  MIC: 8 µg/mL
[13]
  MIC: 16 µg/mL
[14]
  MIC: 4 µg/mL
[15]
  MIC: 128 µg/mL
[16]
  MIC: 128 µg/mL

## CCCNC(=O)c1cc(OCc2ccccc2)c2ccccc2c1
[2]
  Activity: inactive
[5]
  MIC: 2 µg/mL
[9]
  MIC: 1020 µg/mL
[10]
  MIC: 1020 µg/mL
[11]
  MIC: 4 µg/mL
[12]
  MIC: 16 µg/mL
[13]
  MIC: 16 µg/mL
[14]
  MIC: 8 µg/mL
[19]
  Activity: Active
[15]
  MIC: 128 µg/mL
[16]
  MIC: 128 µg/mL

## NC(=O)c1cc(OCCOc2ccccc2N)c2ccccc2c1
[18]
  Activity: Active
[2]
  Activity: Active
[5]
  MIC: 2 µg/mL
[6]
  MIC: 256 µg/mL
[8]
  MIC: 32 µg/mL
[9]
  MIC: 1020 µg/mL
[10]
  MIC: 1020 µg/mL
[11]
  MIC: 4 µg/mL
[12]
  MIC: 8 µg/mL
[13]
  MIC: 16 µg/mL
[14]
  MIC: 16 µg/mL
[19]
  Activity: Active
[15]
  MIC: 128 µg/mL
[16]
  MIC: 128 µg/mL
